Results published in patent publication US11648220B2, “Methods for the treatment of myeloid derived suppressor cells related disorders” (The Rockefeller University, priority 2016, dated 2023).

Legend:
[1] = system: activated CD8+ T-cells in B16F10 melanoma; experiment: tumor-infiltrating activated CD8+ T-cells in B16F10 tumor-bearing mice (flow cytometry); type: in vivo; details: supplemented diet 100 mg/kg/day, tumors isolated day 12-14
Description: All mouse studies were conducted according to a protocol approved by the Institutional Animal Care and Use Committee at the Rockefeller University. C57BL/6 (WT); and Pmel (B6.Cg-Thy1^a/Cy Tg(TcraTcrb)8Rest/J mice were obtained from the Jackson Laboratory. To determine the effect of LXR agonists on in vivo primary tumor growth, mice were injected with 5×10^4 B16F10 melanoma cells. For all tumor growth experiments, cells (suspension in […] of PBS) were mixed 1:1 with matrigel (356231, BD Biosciences, Bedford, Mass.) and subcutaneously injected into the lower flank of 6-8 week-old sex-matched mice. Following formation of tumors, mice were assigned to the following treatment groups as described below. All drug-formulated diets were prepared by Research Diets. […]
(§1) At the indicated day, tumors were isolated from euthanized mice and minced into small (˜1 mm^2) pieces with a scalpel and then enzymatically dissociated. […] After staining, cells were subsequently analyzed by flow cytometry using an LSRII flow cytometer (BD Biosciences). Data was analyzed using FlowJo software. […]
After tumor cell injection, animals were palpated every two days for tumor formation. […] Tumor dimensions were measured using digital calipers, and tumor volume was calculated as (small diameter)^2×(large diameter)/2. […]

[2] = system: myeloid-derived suppressor cells (MDSCs) in B16F10 melanoma; experiment: tumor-infiltrating MDSCs in B16F10 tumor-bearing mice (flow cytometry, Gr1 immunohistochemistry); type: in vivo
Description: (§2) All mouse studies were conducted according to a protocol approved by the Institutional Animal Care and Use Committee at the Rockefeller University. C57BL/6 mice were obtained from the Jackson Laboratory. For experiments testing the effect of LXR agonists on tumor growth, mice were assigned to a control chow or a chow supplemented with compound 682 (Sigma-Aldrich) or compound 705 (Rgenix, Inc.) at 50, or 100 mg/kg/day, as indicated. For combination drug regimens, mice were fed a compound 705-supplemented diet and co-treated with anti-PD-1 antibody (clone RMP1-14 BioXcell), 10 mg/kg by i.p. injection every 3 days for 3 total doses starting on the day of tumor injection. All drug-formulated diets were prepared by Research Diets.
All mouse studies were conducted according to a protocol approved by the Institutional Animal Care and Use Committee at the Rockefeller University. […]
as §1
At the indicated day, blood was drawn from mice and treated with RBC Lysis Buffer (Sigma) followed by filtration through a […] filter (Corning Inc) to obtain a single cell suspension of lymphocytes. […] After staining, cells were subsequently analyzed by flow cytometry using an LSRII flow cytometer (BD Biosciences). Data was analyzed using FlowJo software.
For MDSC quantification studies, frozen tumor sections (no fixation) were stained with an antibody against Gr1 (1:1000; BioXcell). […]

LXRβ = molecular target: T1, LXRβ (Homo sapiens, UniProt P55055); experiment: ligand sensing assay (LiSA), LXRβ; type: biochemical
T1 sequence (P55055 1-460): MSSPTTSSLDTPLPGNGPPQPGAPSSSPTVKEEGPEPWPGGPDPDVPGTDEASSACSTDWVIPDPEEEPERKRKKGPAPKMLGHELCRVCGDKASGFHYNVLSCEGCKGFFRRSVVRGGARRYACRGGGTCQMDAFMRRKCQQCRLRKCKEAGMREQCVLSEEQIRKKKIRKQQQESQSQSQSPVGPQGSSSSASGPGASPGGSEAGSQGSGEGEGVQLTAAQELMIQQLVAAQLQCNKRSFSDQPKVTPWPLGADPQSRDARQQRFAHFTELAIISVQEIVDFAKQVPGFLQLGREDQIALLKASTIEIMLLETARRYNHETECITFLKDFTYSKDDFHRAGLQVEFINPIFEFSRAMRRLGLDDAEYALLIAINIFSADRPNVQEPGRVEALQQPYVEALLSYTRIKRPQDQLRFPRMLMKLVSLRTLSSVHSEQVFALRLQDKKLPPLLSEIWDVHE
Description: As used herein, reference to the activity of an LXR agonist at LXRα and LXRβ refer to the activity as measured using the ligand sensing assay (LiSA) described in Spencer et al. Journal of Medicinal Chemistry 2001, 44, 886-897, incorporated herein by reference. […] For example, the methods of the invention can be performed using an LXRβ agonist having activity for LXRβ that is at least 3-fold greater than the activity of the agonist for LXRα, or having activity for LXRβ that is at least 10-fold greater than the activity of the agonist for LXRα, or having activity for LXRβ that is at least 100-fold greater than the activity of said agonist for LXRα, or having activity for LXRβ that is at least within 3-fold of the activity of the agonist for LXRα. The term “greater activity” in the LiSA assay refers to a lower EC50.

B16F10 melanoma [3] = experiment: B16F10 tumors, compound 705 plus adoptive transfer of Pmel CD8+ T-cells (survival); type: in vivo, mice; details: B16F10, diet 50 mg/kg/day plus 2×10^6 Pmel CD8+ T-cells
Description: All mouse studies were conducted according to a protocol approved by the Institutional Animal Care and Use Committee at the Rockefeller University. C57BL/6 (WT); and Pmel (B6.Cg-Thy1^a/Cy Tg(TcraTcrb)8Rest/J mice were obtained from the Jackson Laboratory. To determine the effect of LXR agonists on in vivo primary tumor growth, mice were injected with 5×10^4 B16F10 melanoma cells. For all tumor growth experiments, cells (suspension in […] of PBS) were mixed 1:1 with matrigel (356231, BD Biosciences, Bedford, Mass.) and subcutaneously injected into the lower flank of 6-8 week-old sex-matched mice. Following formation of tumors, mice were assigned to the following treatment groups as described below. All drug-formulated diets were prepared by Research Diets. After the indicated number of days, either peripheral blood or tumors were isolated to obtain tumor-infiltrating lymphocytes for flow-cytometry analysis as described below.
After tumor cell injection, tumor volumes were measured every two days. Upon tumors measuring 90-100 mm^3 in volume (day 6-7), mice were randomly assigned to a control diet treatment or a COMPOUND 705-supplemented diet (50 mg/kg/day; Rgenix).
The following day, 2×10^6 CD8+ T-cells from Pmel mice were adoptively transferred via retro-orbital injection into both control and COMPOUND 705 treated mice. […]

B16F10 melanoma [4] = experiment: B16F10 tumors, compound 705 plus anti-PD-1 antibody; type: in vivo, mice; details: B16F10, diet 50 mg/kg/day plus anti-PD-1 antibody 10 mg/kg I.P. every 3 days
Description: as §2, with “Diets. […]” for “Diets.”
as §1
After tumor cell injection, animals were treated with anti-PD-1 antibody at a dose of 10 mg/kg (clone RMP1-14; BioXcell), by intraperitoneal (I.P.) injection every 3 days for 3 total doses starting on the day of tumor injection. […] Tumor dimensions were measured using digital calipers, and tumor volume was calculated as (small diameter)^2×(large diameter)/2. […]

MDSCs = experiment: MDSC abundance assay; type: cell-based, mice; details: 1 μM, 3 hours
Description: MDSCs were isolated from the spleens of tumor-bearing wild-type or ApoE−/− mice, as indicated, using the MACS Myeloid-Derived Suppressor Cell Isolation Kit (Miltenyi Biotech) according to manufacturer's protocol. MDSCs were then incubated in RPMI (Sigma) supplemented with 10% FBS and either COMPOUND 705 (dissolved in 2% DMSO at the indicated concentration) or control (2% DMSO) and subsequently incubated at 37° C. for the indicated time. Abundance was assessed by quantifying the percent of live cells using propidium Iodide staining. […]

[5] = system: CD8+ T-cells co-cultured with MDSCs; experiment: T-cell suppression assay; type: cell-based; details: 24 hours co-culture with MDSCs from treated tumor-bearing mice
Description: CD8+ cells were purified from single cell suspensions from spleens of mice using the MACS CD8+ T-cell isolation kit (Miltenyi Biotech) according to manufacturer's protocol. Cells were then labeled with cell tracker reagent (BV). The labeled CD8+ T cells were plated on 96-well plates coated with 1 mg/ml anti-CD3 and anti-CD28 beads (Dynabeads® Mouse T-Activator CD3/CD28 for T-Cell Expansion and Activation; Gibco). Recombinant IL-2 (Gibco) was then added to the wells according to manufacturer's protocol. MDSC were then isolated using the MACS Myeloid-Derived Suppressor Cell Isolation Kit (Miltenyi Biotech) according to manufacturer's protocol and subsequently added in the indicated MDSC:T-cell ratios. Cells were incubated at 37° C. for 24-36 hours. T-cell activation was measured by flow cytometry by assessing the percent of T-cells positive for IFNγ staining with diluted BV dye.

LXRα = molecular target: T2, LXRα (Homo sapiens, UniProt Q13133); details: cited from earlier work
T2 sequence (Q13133 1-447): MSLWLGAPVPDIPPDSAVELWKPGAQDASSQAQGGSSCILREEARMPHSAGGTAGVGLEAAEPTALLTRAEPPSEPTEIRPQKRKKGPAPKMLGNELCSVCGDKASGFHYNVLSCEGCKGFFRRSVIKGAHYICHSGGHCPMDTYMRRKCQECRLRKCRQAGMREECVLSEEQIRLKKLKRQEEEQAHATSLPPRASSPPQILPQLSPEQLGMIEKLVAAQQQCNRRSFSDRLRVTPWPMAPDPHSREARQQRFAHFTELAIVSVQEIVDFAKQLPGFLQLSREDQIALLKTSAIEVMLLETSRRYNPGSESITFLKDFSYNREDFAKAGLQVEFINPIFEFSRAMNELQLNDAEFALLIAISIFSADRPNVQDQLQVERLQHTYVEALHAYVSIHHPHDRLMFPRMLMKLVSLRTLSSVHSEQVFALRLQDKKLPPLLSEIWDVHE

[6] = daily I.P. injection 2 mg, day 12-14

Structure (SMILES): O=C(O)Cc1cccc(OCCCN(Cc2cccc(C(F)(F)F)c2Cl)CC(c2ccccc2)c2ccccc2)c1 [Compound 682]
- number of tumor-infiltrating activated CD8+ T-cells [1]: increases the number of tumor-infiltrating activated CD8+ T-cells
- number of tumor-infiltrating myeloid-derived suppressor cells (MDSCs) ([2]; supplemented diet 100 mg/kg/day, tumors isolated day 12-14): reduces the number of tumor-infiltrating myeloid-derived suppressor cells
- fold greater activity for LXRβ compared to LXRα (LXRβ): approximately 6 fold

Structure (SMILES): CC(CCOc1cccc(CC(=O)O)c1)N(Cc1cccc(C(F)(F)F)c1Cl)CC(c1ccccc1)c1ccccc1 (stereo not shown) [Compound 705]
- anti-tumor activity of adoptively transferred melanoma-targeting CD8+ T-cells (B16F10 melanoma [3]): enhances the anti-tumor activity
- anti-tumor T-cell response induced with anti-PD-1 antibody therapy (B16F10 melanoma [4]): enhances the anti-tumor T-cell response
- abundance of MDSCs in vitro (MDSCs): reduces abundance of MDSCs in vitro
- MDSC-mediated suppression of CD8+ T-cells [5]: reverses MDSC-mediated suppression of CD8+ T-cells
- number of granulocytic MDSCs (G-MDSC) [2, 6]: reduces the number
- number of monocytic MDSCs (M-MDSC) [2, 6]: reduces the number

Structure (SMILES): CC(C)(O)c1cn(-c2ccc(-c3cccc(S(C)(=O)=O)c3)cc2)c(C(C)(C)c2ccccc2Cl)n1 [Compound 718]
- EC50 (LXRα): 101 to 1000 nM
